In ChEMBL document CHEMBL1129095, “Design and synthesis of new antagonist peptides for platelet GPIIb/IIIa receptor as anti-thrombotic agents” (Bioorg Med Chem Lett, 1996) one finds IC50 and half-life data, which are given here for 26 molecules.

For one data set, the species on record is Homo sapiens. As to the kind of experiment: Inhibition of collagen-induced human platelet aggregation. Format: functional.
Data set [1] is described as follows: T1/2 was evaluated in human plasma. The class given is ADME, cell-free.

In general, pIC50 refers to the negative decadic logarithm of the IC50, by convention in mol/L. A low value points to a high IC50. A word on the half-life: it is the time needed for the level to fall by half in the phase considered. Lower therefore signals rapid decline.

pIC50: −log10 of the molar value. Non-standard residues stand in square brackets, D forms with d. Residues, ends and D or L forms follow the SMILES beside them. *: point of attachment. Butyryl(4-indol-3-yl) = O=C(CCCc1c[nH]c2ccccc12)*; Dihydroorotyl(S) = O=C1C[C@@H](C(=O)*)NC(=O)N1; Phthalimidoacetyl = O=C1c2ccccc2C(=O)N1CC(=O)*; X4 = COc1ccc2[nH]c(C)c(CC(=O)*)c2c1; Hyp = O=C(O)[C@@H]1C[C@@H](O)CN1; X8 = COc1ccc2[nH]cc(CC(=O)*)c2c1; X7 = Cc1[nH]c2ccccc2c1CC(=O)*; pGlu = O=C1CC[C@@H](C(=O)O)N1; X2 = O=C(Cc1c[nH]c2ccccc12)*; NMePro = CN1CCC[C@H]1C(=O)*; X6 = O=C1NC(=O)C(CC(=O)*)N1; X1 = O=C1N[C@H](C(=O)*)CS1; Pip = O=C(O)[C@@H]1CCCCN1; X3 = O=C(c1cc(O)nc(O)n1)*; Thz = O=C(O)[C@@H]1CSCN1; Aze = O=C(O)[C@@H]1CCN1; X5 = O=C([C@@H]1CCCO1)*; PhAc = O=C(Cc1ccccc1)*; Bz = O=C(c1ccccc1)*

Regarding `N=C(N)NCCC[C@H](NC(=O)[C@H](CO)NC(=O)[C@@H]1CCCCN1)C(=O)NCC(=O)N[C@@H](CC(=O)O)C(=O)N[C@@H](Cc1c[nH]c2ccccc12)C(=O)O` (H-[Pip]SRGDW-OH), in the data set filed under Homo sapiens, the pIC50 was 4.96.

In the data set filed under Homo sapiens, `N=C(N)NCCC[C@H](NC(=O)[C@H](CO)NC(=O)[C@@H]1C[C@@H](O)CN1)C(=O)NCC(=O)N[C@@H](CC(=O)O)C(=O)N[C@@H](Cc1c[nH]c2ccccc12)C(=O)O` (H-[Hyp]SRGDW-OH) showed a pIC50 of 4.55. Compared with the last molecule, the pIC50 is 0.41 log units lower.

For `CN1CCC[C@H]1C(=O)N[C@@H](CO)C(=O)N[C@@H](CCCN=C(N)N)C(=O)NCC(=O)N[C@@H](CC(=O)O)C(=O)N[C@@H](Cc1c[nH]c2ccccc12)C(=O)O` (NMePro-SRGDW-OH), the pIC50 in the data set filed under Homo sapiens was 4.70. This pIC50 and that of the molecule before are within 0.2 log units of each other.

In the data set listed under Homo sapiens, `N=C(N)NCCC[C@H](NC(=O)[C@H](CO)NC(=O)CC1NC(=O)NC1=O)C(=O)NCC(=O)N[C@@H](CC(=O)O)C(=O)N[C@@H](Cc1c[nH]c2ccccc12)C(=O)O` (some centres not stated) (X6-SRGDW-OH) gave a pIC50 of 5.16.

`Cc1[nH]c2ccccc2c1CC(=O)N[C@@H](CO)C(=O)N[C@@H](CCCN=C(N)N)C(=O)NCC(=O)N[C@@H](CC(=O)O)C(=O)N[C@@H](Cc1c[nH]c2ccccc12)C(=O)O` (X7-SRGDW-OH): the pIC50 in the data set listed under Homo sapiens was 4.66.

H-FSRGDW-OH gave a pIC50 in the data set listed under Homo sapiens of 4.64.

Take `N=C(N)NCCC[C@H](NC(=O)[C@H](CO)NC(=O)[C@@H]1CCCN1)C(=O)NCC(=O)N[C@@H](CC(=O)O)C(=O)N[C@@H](Cc1c[nH]c2ccccc12)C(=O)O`: the pIC50 in the data set filed under Homo sapiens is 6.06.

Molecule `N=C(N)NCCC[C@H](NC(=O)[C@H](CO)NC(=O)[C@@H]1CCN1)C(=O)NCC(=O)N[C@@H](CC(=O)O)C(=O)N[C@@H](Cc1c[nH]c2ccccc12)C(=O)O` (H-[Aze]SRGDW-OH) showed a pIC50 in the data set filed under Homo sapiens of 5.89. The pIC50 values of the last two molecules are within 0.2 log units of each other.

For `N=C(N)NCCC[C@H](NC(=O)[C@H](CO)NC(=O)Cc1c[nH]c2ccccc12)C(=O)NCC(=O)N[C@@H](CC(=O)O)C(=O)N[C@@H](Cc1c[nH]c2ccccc12)C(=O)O` (X2-SRGDW-OH), in the data set listed under Homo sapiens, the pIC50 is 4.68.

`N=C(N)NCCC[C@H](NC(=O)[C@H](CO)NC(=O)c1ccccc1)C(=O)NCC(=O)N[C@@H](CC(=O)O)C(=O)N[C@@H](Cc1c[nH]c2ccccc12)C(N)=O` (Bz-SRGDW-NH2) had a pIC50 in the data set filed under Homo sapiens of 4.47. This pIC50 lies 0.21 log units lower than the previous one.

Regarding Ac-PSRGDW-OH, the pIC50 in the data set listed under Homo sapiens was 4.30.

Regarding H-WSRGDW-OH, the pIC50 in the data set listed under Homo sapiens is 5.17. Further, the half-life in data set [1] amounted to 11 min.

Regarding `N=C(N)NCCC[C@H](NC(=O)[C@H](CO)NC(=O)c1cc(O)nc(O)n1)C(=O)NCC(=O)N[C@@H](CC(=O)O)C(=O)N[C@@H](Cc1c[nH]c2ccccc12)C(=O)O` (X3-SRGDW-OH), the pIC50 in the data set filed under Homo sapiens is 5.40.

On to `COc1ccc2[nH]cc(CC(=O)N[C@@H](CO)C(=O)N[C@@H](CCCN=C(N)N)C(=O)NCC(=O)N[C@@H](CC(=O)O)C(=O)N[C@@H](Cc3c[nH]c4ccccc34)C(=O)O)c2c1` (X8-SRGDW-OH), for which the pIC50 in the data set filed under Homo sapiens was 4.96. Against the preceding molecule, the pIC50 is 0.44 log units lower.

In the case of `NC(=O)[C@H](Cc1ccccc1)NC(=O)[C@H](CC(=O)O)NC(=O)CNC(=O)[C@@H](N)CCCN=C(N)N` (H-RGDF-NH2), in the data set filed under Homo sapiens, the pIC50 is 4.30.

In the data set listed under Homo sapiens, `N=C(N)NCCC[C@H](NC(=O)[C@H](CO)NC(=O)CCCc1c[nH]c2ccccc12)C(=O)NCC(=O)N[C@@H](CC(=O)O)C(=O)N[C@@H](Cc1c[nH]c2ccccc12)C(=O)O` ({Butyryl(4-indol-3-yl)}-SRGDW-OH) gave a pIC50 of 4.68.

`COc1ccc2[nH]c(C)c(CC(=O)N[C@@H](CO)C(=O)N[C@@H](CCCN=C(N)N)C(=O)NCC(=O)N[C@@H](CC(=O)O)C(=O)N[C@@H](Cc3c[nH]c4ccccc34)C(=O)O)c2c1` (X4-SRGDW-OH) had a pIC50 in the data set listed under Homo sapiens of 4.60.

In the case of Ac-SRGDW-NH2, in the data set filed under Homo sapiens, the pIC50 is 4.13.

The molecule `N=C(N)NCCC[C@H](NC(=O)[C@H](CO)NC(=O)CN1C(=O)c2ccccc2C1=O)C(=O)NCC(=O)N[C@@H](CC(=O)O)C(=O)N[C@@H](Cc1c[nH]c2ccccc12)C(N)=O` (Phthalimidoacetyl-SRGDW-NH2) had a pIC50 in the data set filed under Homo sapiens of 4.68.

`N=C(N)NCCC[C@H](NC(=O)[C@H](CO)NC(=O)[C@H]1CCCN1)C(=O)NCC(=O)N[C@@H](CC(=O)O)C(=O)N[C@@H](Cc1c[nH]c2ccccc12)C(=O)O` gave a pIC50 in the data set listed under Homo sapiens of 4.48. This pIC50 is 0.20 log units lower than that of the molecule before.

For the molecule `N=C(N)NCCC[C@H](NC(=O)[C@H](CO)NC(=O)[C@@H]1CSC(=O)N1)C(=O)NCC(=O)N[C@@H](CC(=O)O)C(=O)N[C@@H](Cc1c[nH]c2ccccc12)C(=O)O` (X1-SRGDW-OH), the pIC50 in the data set filed under Homo sapiens is 4.92.

For `N=C(N)NCCC[C@H](NC(=O)[C@H](CO)NC(=O)Cc1ccccc1)C(=O)NCC(=O)N[C@@H](CC(=O)O)C(=O)N[C@@H](Cc1c[nH]c2ccccc12)C(N)=O` (PhAc-SRGDW-NH2), in the data set listed under Homo sapiens, the pIC50 was 4.23.

In the data set filed under Homo sapiens, `N=C(N)NCCC[C@H](NC(=O)[C@H](CO)NC(=O)[C@@H]1CSCN1)C(=O)NCC(=O)N[C@@H](CC(=O)O)C(=O)N[C@@H](Cc1c[nH]c2ccccc12)C(=O)O` (H-[Thz]SRGDW-OH) showed a pIC50 of 4.57.

`N=C(N)NCCC[C@H](NC(=O)[C@H](CO)NC(=O)[C@@H]1CCCO1)C(=O)NCC(=O)N[C@@H](CC(=O)O)C(=O)N[C@@H](Cc1c[nH]c2ccccc12)C(=O)O` (X5-SRGDW-OH): the pIC50 in the data set listed under Homo sapiens is 4.68.

Regarding `N=C(N)NCCC[C@H](NC(=O)[C@H](CO)NC(=O)[C@@H]1CCC(=O)N1)C(=O)NCC(=O)N[C@@H](CC(=O)O)C(=O)N[C@@H](Cc1c[nH]c2ccccc12)C(=O)O` ([pGlu]SRGDW-OH), the pIC50 in the data set filed under Homo sapiens was 5.25.

On to `N=C(N)NCCC[C@H](NC(=O)[C@H](CO)NC(=O)[C@@H]1CC(=O)NC(=O)N1)C(=O)NCC(=O)N[C@@H](CC(=O)O)C(=O)N[C@@H](Cc1c[nH]c2ccccc12)C(=O)O` ({Dihydroorotyl(S)}-SRGDW-OH), for which the pIC50 in the data set filed under Homo sapiens is 5.06.
